Legend:
Assay type in all cases: functional
[1] = test system: HCT-116; assay: Cytotoxicity against human HCT116 cells assessed as cell growth at 0.1 uM after 1 to 11 days by MTT assay; conditions: read-out: Activity
[2] = test system: UACC-62; assay: Cytotoxicity against human UACC62 cells assessed as cell growth at 0.1 uM after 1 to 11 days by MTT assay; conditions: read-out: Activity
[3] = test system: BT-549; assay: Cytotoxicity against human BT549 cells assessed as cell growth at 100 uM after 1 to 11 days by MTT assay; conditions: read-out: Activity
[4] = test system: NCI-H522; assay: Cytotoxicity against human NCI-H522 cells assessed as cell growth at 1 mM after 1 to 11 days by MTT assay; conditions: read-out: Activity
[5] = test system: SK-OV-3; assay: Cytotoxicity against human SKOV3 cells assessed as cell growth at 1 uM after 1 to 11 days by MTT assay; conditions: read-out: Activity
[6] = test system: NCI/ADR-RES; assay: Cytotoxicity against human NCI/ADR-RES cells after 1 to 11 days by MTT assay
[7] = test system: HT-29; assay: Cytotoxicity against human HT-29 cells assessed as cell growth at 10 uM after 1 to 11 days by MTT assay; conditions: read-out: Activity
[8] = test system: SK-OV-3; assay: Cytotoxicity against human SKOV3 cells assessed as cell growth at 0.1 uM after 1 to 11 days by MTT assay; conditions: read-out: Activity
[9] = test system: UO-31; assay: Cytotoxicity against human UO31 cells assessed as cell growth at 10 uM after 1 to 11 days by MTT assay; conditions: read-out: Activity
[10] = test system: HCT-116; assay: Cytotoxicity against human HCT116 cells after 1 to 11 days by MTT assay
[11] = Cytotoxicity against human Hs 578T cells assessed as cell growth at 1 mM after 1 to 11 days by MTT assay; conditions: read-out: Activity
[12] = test system: HCT-116; assay: Cytotoxicity against human HCT116 cells assessed as cell growth at 10 uM after 1 to 11 days by MTT assay; conditions: read-out: Activity
[13] = test system: T47D; assay: Cytotoxicity against human T47D cells assessed as cell growth at 0.1 uM after 1 to 11 days by MTT assay; conditions: read-out: Activity
[14] = test system: 786-0; assay: Cytotoxicity against human 786-0 cells assessed as cell growth at 100 uM after 1 to 11 days by MTT assay; conditions: read-out: Activity
[15] = test system: HOP-92; assay: Cytotoxicity against human HOP92 cells assessed as cell growth at 1 uM after 1 to 11 days by MTT assay; conditions: read-out: Activity
[16] = Cytotoxicity against human Hs 578T cells assessed as cell growth at 0.1 uM after 1 to 11 days by MTT assay; conditions: read-out: Activity
[17] = Cytotoxicity against human Hs 578T cells assessed as cell growth at 100 uM after 1 to 11 days by MTT assay; conditions: read-out: Activity
[18] = test system: NCI-H522; assay: Cytotoxicity against human NCI-H522 cells assessed as cell growth at 1 uM after 1 to 11 days by MTT assay; conditions: read-out: Activity
[19] = test system: OVCAR-8; assay: Cytotoxicity against human OVCAR8 cells assessed as cell growth at 100 uM after 1 to 11 days by MTT assay; conditions: read-out: Activity
[20] = test system: HL-60(TB); assay: Cytotoxicity against human HL-60(TB) cells assessed as cell growth at 100 uM after 1 to 11 days by MTT assay; conditions: read-out: Activity
[21] = test system: BT-549; assay: Cytotoxicity against human BT549 cells after 1 to 11 days by MTT assay
[22] = test system: MDA-MB-468; assay: Cytotoxicity against human MDA-MB-468 cells assessed as cell growth at 10 uM after 1 to 11 days by MTT assay; conditions: read-out: Activity
[23] = test system: SW-620; assay: Cytotoxicity against human SW620 cells assessed as cell growth at 1 mM after 1 to 11 days by MTT assay; conditions: read-out: Activity
[24] = test system: RXF 393; assay: Cytotoxicity against human […] cells assessed as cell growth at 100 uM after 1 to 11 days by MTT assay; conditions: read-out: Activity
[25] = test system: M14; assay: Cytotoxicity against human M14 cells assessed as cell growth at 100 uM after 1 to 11 days by MTT assay; conditions: read-out: Activity
[26] = test system: U-251; assay: Cytotoxicity against human U251 cells assessed as cell growth at 100 uM after 1 to 11 days by MTT assay; conditions: read-out: Activity
[27] = test system: NCI/ADR-RES; assay: Cytotoxicity against human NCI/ADR-RES cells assessed as cell growth at 1 uM after 1 to 11 days by MTT assay; conditions: read-out: Activity
[28] = test system: HT-29; assay: Cytotoxicity against human HT-29 cells after 1 to 11 days by MTT assay
[29] = test system: MDA-MB-468; assay: Cytotoxicity against human MDA-MB-468 cells assessed as cell growth at 1 mM after 1 to 11 days by MTT assay; conditions: read-out: Activity
[30] = test system: HCT-15; assay: Cytotoxicity against human HCT15 cells assessed as cell growth at 100 uM after 1 to 11 days by MTT assay; conditions: read-out: Activity
[31] = test system: SR; assay: Cytotoxicity against human SR cells assessed as cell growth at 100 uM after 1 to 11 days by MTT assay; conditions: read-out: Activity
[32] = test system: SW-620; assay: Cytotoxicity against human SW620 cells assessed as cell growth at 1 uM after 1 to 11 days by MTT assay; conditions: read-out: Activity
[33] = test system: CCRF-CEM; assay: Cytotoxicity against human CCRF-CEM cells assessed as cell growth at 1 uM after 1 to 11 days by MTT assay; conditions: read-out: Activity
[34] = test system: ACHN; assay: Cytotoxicity against human ACHN cells assessed as cell growth at 100 uM after 1 to 11 days by MTT assay; conditions: read-out: Activity
[35] = test system: UO-31; assay: Cytotoxicity against human UO31 cells assessed as cell growth at 100 uM after 1 to 11 days by MTT assay; conditions: read-out: Activity
[36] = test system: SK-OV-3; assay: Cytotoxicity against human SKOV3 cells assessed as cell growth at 1 mM after 1 to 11 days by MTT assay; conditions: read-out: Activity
[37] = test system: HCT-15; assay: Cytotoxicity against human HCT15 cells assessed as cell growth at 1 uM after 1 to 11 days by MTT assay; conditions: read-out: Activity
[38] = test system: OVCAR-3; assay: Cytotoxicity against human OVCAR-3 cells assessed as cell growth at 0.1 uM after 1 to 11 days by MTT assay; conditions: read-out: Activity
[39] = test system: SK-MEL-5; assay: Cytotoxicity against human SK-MEL-5 cells assessed as cell growth at 1 mM after 1 to 11 days by MTT assay; conditions: read-out: Activity
[40] = test system: SF-539; assay: Cytotoxicity against human SF539 cells assessed as cell growth at 0.1 uM after 1 to 11 days by MTT assay; conditions: read-out: Activity
[41] = test system: K562; assay: Cytotoxicity against human K562 cells assessed as cell growth at 100 uM after 1 to 11 days by MTT assay; conditions: read-out: Activity
[42] = test system: NCI-H226; assay: Cytotoxicity against human NCI-H226 cells assessed as cell growth at 10 uM after 1 to 11 days by MTT assay; conditions: read-out: Activity
[43] = test system: M14; assay: Cytotoxicity against human M14 cells assessed as cell growth at 0.1 uM after 1 to 11 days by MTT assay; conditions: read-out: Activity
[44] = test system: SN12C; assay: Cytotoxicity against human SN12C cells assessed as cell growth at 1 mM after 1 to 11 days by MTT assay; conditions: read-out: Activity
[45] = test system: A549; assay: Cytotoxicity against human A549 cells assessed as cell growth at 0.1 uM after 1 to 11 days by MTT assay; conditions: read-out: Activity
[46] = read-out: LC50 (the source's name)

O=C1Nc2ncccc2/C1=C1/Nc2ccccc2/C1=N\O
growth at 0.1 µM [1]: 109% | growth at 0.1 µM [2]: 94% | growth at 100 µM [3]: 43% | growth at 1000 µM [4]: 50% | growth at 1 µM [5]: 93% | GI50 [6]: > 100 µM | TGI [6]: > 100 µM | CC50 [6, 46]: > 100 µM | growth at 10 µM [7]: 99% | growth at 0.1 µM [8]: 100% | growth at 10 µM [9]: 62% | TGI [10]: > 100 µM | CC50 [10, 46]: > 100 µM | growth at 1000 µM [11]: 31% | growth at 10 µM [12]: 108% | growth at 0.1 µM [13]: 100% | growth at 100 µM [14]: 41% | growth at 1 µM [15]: 81% | growth at 0.1 µM [16]: 97% | growth at 100 µM [17]: 4% | growth at 1 µM [18]: 99% | growth at 100 µM [19]: 50% | growth at 100 µM [20]: 38% | GI50 [21]: 5.41 µM | TGI [21]: > 100 µM | CC50 [21, 46]: > 100 µM | growth at 10 µM [22]: 80% | growth at 1000 µM [23]: 39% | growth at 100 µM [24]: -9% | growth at 100 µM [25]: 46% | growth at 100 µM [26]: 55% | growth at 1 µM [27]: 100% | GI50 [28]: 88.8 µM | TGI [28]: > 100 µM | CC50 [28, 46]: > 100 µM | growth at 1000 µM [29]: 13% | growth at 100 µM [30]: 27% | growth at 100 µM [31]: 29% | growth at 1 µM [32]: 94% | growth at 1 µM [33]: 76% | growth at 100 µM [34]: 21% | growth at 100 µM [35]: 3% | growth at 1000 µM [36]: 8% | growth at 1 µM [37]: 96% | growth at 0.1 µM [38]: 99% | growth at 1000 µM [39]: 30% | growth at 0.1 µM [40]: 89% | growth at 100 µM [41]: 39% | growth at 10 µM [42]: 53% | growth at 0.1 µM [43]: 95% | growth at 1000 µM [44]: 36% | growth at 0.1 µM [45]: 102%
